Source: patent publication US11464767B2, “Prodrugs of phenolic TRPV1 agonists in combination with local anesthetics and vasoconstrictors for improved local anesthesia” (Concentric Analgesics, Inc., priority 2016, dated 2022)

What was measured:
in vivo = assay: in vivo; parameters: species or system male Sprague-Dawley rats; details: rat, sc; for Tmax: Tmax of capsaicin
From the text: This Example compares the pharmacokinetics of capsaicin from either capsaicin or from Compound 1 (with or without co-administered bupivacaine or bupivacaine with epinephrine) administered subcutaneously (SC) to rats. Additionally, this example compares the pharmacokinetics of cyclic urea metabolite (Compound 2) from Compound 1 (with or without co-administered bupivacaine or bupivacaine with epinephrine).
SC dosing: Four groups of six male Sprague-Dawley rats (vendor was Charles River Laboratories) each were to receive a single subcutaneous dose (4 mL/kg) of one of the following test articles:
Group 1) 1.00 mg/kg capsaicin in 25% PEG300/sterile water for injection (♦);
Group 2) 1.62 mg/kg Compound 1.HCl in sterile water for injection (□);
Group 3) 1.62 mg/kg Compound 1.HCl in 0.25% bupivacaine hydrochloride for injection (Δ);
Group 4) 1.62 mg/kg Compound 1.HCl in 0.25% bupivacaine hydrochloride plus epinephrine, (1:200,000 for injection) (*).
The dose of capsaicin and Compound 1 were selected to provide approximately equimolar amounts.
The injection volume was 4 mL/kg. (Note: The actual dose of capsaicin for Group 1 was 0.74 mg/kg, or 74% of the intended dose of 1 mg/kg. Dose data represents dose correction of Group 1 to equimolar dosages with Compound 1 from groups 2, 3, 4). The actual doses of Compound 1 HCl and bupivacaine for Groups 2, 3, and 4 were within 10% of the intended doses.
Blood samples (0.3 mL) were collected from the jugular vein into tubes containing K2EDTA as anticoagulant and 0.3 ml of 2% formic acid (resulting in a final concentration of 1% formic acid) as a quenching agent to stop the cyclization of Compound 1, which releases capsaicin and cyclic urea Compound 2. The samples were collected from each rat at 2, 10, and 30 minutes, and 1, 2, 4, 8, and 24 hours post-dose.
Each blood sample was mixed by inversion and placed on dry ice. They were not processed for plasma. The blood samples were kept frozen at −70° C. until further processing and analysis was performed. All blood samples were collected as scheduled.
The concentrations of the two main analytes in rat blood mixed 1:1 (v/v) with 2% formic acid were determined simultaneously using a qualified LC-MS/MS assay. The results for both analytes were reported in ng/mL. The calibration range was 1 to 1,000 ng/mL for Compound 1 and capsaicin in the mixed matrix. The calibration range was 5 to 1,000 ng/mL for Compound 2.
Table 1, FIG. 1, and FIG. 2 provide dose-corrected capsaicin exposure results for rats administered as described above.
Table 2, FIG. 3, and FIG. 4 provide Compound 2 exposure results for rats administered as described above.

[1] = test system: Brennan Model of Post-Incisional Pain in rat; assay: Brennan Model of Post-Incisional Pain in rat, guarding scores (Example 4); format: in vivo, male Sprague Dawley rats
Experimental: This Example compares the pharmacodynamics of capsaicin from either capsaicin or from Compound 1 (with or without co-administered bupivacaine or ropivacaine) administered via intraplantar infiltration to rats.
Intraplantar infiltration dosing: Five groups of eight male Sprague Dawley rats (vendor was Charles River Laboratories) each were to receive a single subcutaneous dose of one of the following test articles: • Group 1. Compound 1, 162 μg in 0.25% bupivacaine solution (175 μL) • Group 2. Compound 1, 162 μg in 0.25% ropivacaine solution (175 μL) • Group 3. Compound 1, 162 μg in 0.125% ropivacaine solution (175 μL) • Group 4. 0.25% Ropivacaine solution (175 μL) • Group 5. Vehicle control (0.9% Saline; 175 μL)
The injection volume was 175 μL per rat. Vehicle and test articles will be administered by wound intraplantar infiltration (150 μL) immediately prior to incision, and injection into flexor muscle prior to closure (25 μL).
Surgery: Animals were anesthetized with 1.8 to 4% isofluorane (delivered via a nose cone). Study drug ([…]) was infiltrated (by intraplantar injection) immediately prior to incision. A 1 cm long incision of skin, fascia and muscle will be made in the plantar aspect (heel, midfoot or distal pad area) of the right hind paw starting 0.5 cm from the proximal edge of the heel and extending towards the toes. The flexor muscle was elevated and incised longitudinally via blunt dissection with the muscle origin and insertion remaining intact. After hemostasis with gentle pressure, study drug (25 μL) was injected into the flexor muscle prior to closure, and the incision was closed with one or two sutures (5-0 silk/nylon ophthalmic suture on a taper TF needle or equivalent). […]
Guarding Behaviors: The rats were placed in Plexiglas® squares on a stainless steel wire mesh floor thirty minutes before guarding scores are to be measured for acclimation. Guarding scores were measured over 1 hour time periods for the incised paw. The animals were observed closely during a 60 second period every 5 minutes for 1 hour and scored as follows. […]

[2] = Hydrophilicity/water solubility compared with capsaicin; format: physicochemical; details: than capsaicin
[3] = male, Sprague-Dawley, 1.62 mg/kg

Compound: CN1CC2CCCCN2C1=O (centres unmarked) [Compound 2, 2-methylhexahydroimidazo[1,5-a]pyridin-3(2H)-one]
- AUC0-24 of Compound 2, Mean ± SD (in vivo; [3]): 24,180 ± 7,095 ng · min/mL
- AUC0-24 of Compound 2, Median (in vivo; [3]): 25,930 ng · min/mL
- Cmax of Compound 2, Mean ± SD (in vivo; [3]): 175 ± 48 ng/mL
- Cmax of Compound 2, Median (in vivo; [3]): 196 ng/mL
- Tmax of Compound 2, Mean ± SD (in vivo; [3]): 36.7 ± 19.7 min
- AUC(0-t) (in vivo; male, Sprague-Dawley, 1.62 mg/kg, AUC0-24 of Compound 2, Mean ± SD): 445 ng·h/mL
- AUC(0-t) (in vivo; male, Sprague-Dawley, 1.62 mg/kg, AUC0-24 of Compound 2, Median): 450 ng·h/mL
- Cmax (in vivo; male, Sprague-Dawley, 1.62 mg/kg, Cmax of Compound 2, Mean ± SD): 226 ± 37 ng/mL
- Cmax (in vivo; male, Sprague-Dawley, 1.62 mg/kg, Cmax of Compound 2, Median): 226 ng/mL

Compound: COc1cc(CNC(=O)CCCCC=CC(C)C)ccc1O [Capsaicin, 8-methyl-N-vanillyl-6-nonenamide]
- Tmax (in vivo; male, Sprague-Dawley, 1 mg/kg, Mean ± SD): 30 min
- Tmax (in vivo; male, Sprague-Dawley, 1 mg/kg, Median): 30 min
- Tmax of capsaicin, Mean ± SD (in vivo; [3]): 50.0 ± 15.5 min
- Tmax of capsaicin, Median (in vivo; [3]): 60 min
- Tmax (in vivo; male, Sprague-Dawley, 1.62 mg/kg, Mean ± SD): 26.7 min
- Tmax (in vivo; male, Sprague-Dawley, 1.62 mg/kg, Median): 30 min
- AUC0-24 of capsaicin, Mean ± SD (in vivo; 1 mg/kg): 5,799 ± 1,759 (ng · min/mL)/(mg/kg)
- AUC0-24 of capsaicin, Median (in vivo; 1 mg/kg): 5,193 (ng · min/mL)/(mg/kg)
- Cmax of capsaicin, Mean ± SD (in vivo; 1 mg/kg): 110 ± 41 (ng/mL)/(mg/kg)
- Cmax of capsaicin, Median (in vivo; 1 mg/kg): 105 (ng/mL)/(mg/kg)

Compound: CCCN1CCCC[C@H]1C(=O)Nc1c(C)cccc1C [0.25% Ropivacaine, Ropivacaine]
- Guarding Score (Mean ± SEM) Day 1 ([1]; Day 1, beginning four hours post surgery, 175 μL intraplantar infiltration, Compound 1 dose 162 μg where present, incised paw, total scores 0-24): 13.5 ± 1.17
- mean guarding scores on Day 1 compared to the 0.9% saline group ([1]; Day 1, 175 μL intraplantar infiltration, Compound 1 dose 162 μg where present, p<0.05): no significant changes
- Guarding Score (Mean ± SEM) Predose ([1]; Predose baseline, day prior to surgery and dosing, incised paw, total scores 0-24): 1.1 ± 0.30

Compound: CNCC1CCCCN1C(=O)Oc1ccc(CNC(=O)CCCC/C=C/C(C)C)cc1OC.Cl (centres unmarked) [Compound 1, (E)-2-methoxy-4-((8-methylnon-6-enamido)methyl)phenyl 2-((methylamino)methyl)piperidine-1-carboxylate hydrochloride]
- hydrophilicity/water solubility [2]: significantly higher
